{
  "source": "paper PMC7368552",
  "about": "(ACS chemical neuroscience, 2018)",
  "key": {"GSK-3β [1]": {"tested_on": "GSK-3β", "details": "read-out: GSK-3β inhibition IC50; cited from earlier work"}, "[2]": {"tested_on": "Aβ42 induced neurotoxicity in SH-SY5Y cells", "details": "cited from earlier work"}, "GSK-3β [3]": {"biological_target": "T1, GSK-3β (Homo sapiens, UniProt P49841)", "T1 sequence (P49841 whole entry)": "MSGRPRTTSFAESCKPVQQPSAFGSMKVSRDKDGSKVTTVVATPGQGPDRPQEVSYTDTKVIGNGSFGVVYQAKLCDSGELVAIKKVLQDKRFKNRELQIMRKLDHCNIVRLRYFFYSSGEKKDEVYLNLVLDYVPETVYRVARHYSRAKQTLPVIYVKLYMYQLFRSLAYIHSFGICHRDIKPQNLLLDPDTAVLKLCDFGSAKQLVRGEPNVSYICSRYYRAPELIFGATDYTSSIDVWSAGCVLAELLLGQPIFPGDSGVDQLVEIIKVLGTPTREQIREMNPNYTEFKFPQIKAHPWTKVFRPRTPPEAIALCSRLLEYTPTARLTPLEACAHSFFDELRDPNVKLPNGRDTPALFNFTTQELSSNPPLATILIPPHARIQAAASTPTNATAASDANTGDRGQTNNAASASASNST", "experiment": "ADP-Glo kinase luminescent assay, GSK-3β inhibition", "type": "biochemical", "details": "for Ligand-lipophilic efficiency (LiPE): LiPE = pIC50 – CLogP"}, "[4]": {"experiment": "Parallel artificial membrane permeability assay", "details": "PAMPA; for Papp at 5 h, 20 μM: pH 7.4, PAMPA permeability classification, pH 7.4, 5 h"}, "[5]": {"tested_on": "GSK-3β mediated tau phosphorylation at pS396", "experiment": "SH-SY5Y whole-cell lysate GSK-3β assay with human tau pS396 ELISA", "type": "biochemical", "details": "for effect on GSK-3β mediated tau hyperphosphorylation (pS396): 2, 10 and 50 μM, 2 h, 37 °C, lysate fortified with 0.25% GSK-3β, ELISA"}, "[6]": {"tested_on": "Aβ42 induced neurotoxicity in SH-SY5Y cells", "experiment": "Anti-Aβ42 neurotoxicity assay in SH-SY5Y cells", "type": "cell-based, human"}, "[7]": {"tested_on": "panel of 41 human protein kinases", "experiment": "Kinase selectivity screening, panel of 41 human protein kinases", "type": "biochemical", "details": "5 μM"}, "GSK-3β [8]": {"biological_target": "T1, GSK-3β", "experiment": "GSK-3β kinetic studies", "type": "biochemical", "details": "30 0 to 5 μM"}, "SH-SY5Y cells": {"tested_on": "SH-SY5Y cells", "experiment": "Cytotoxicity assessment in SH-SY5Y cells", "type": "cell-based, human", "details": "72 h"}},
  "note": "pEC50, pIC50: −log10 of the molar value. Read-outs that look alike come from different tables or passages of the source.",
  "data": [
    {"smiles": "O=C([O-])[O-].[Li+].[Li+]", "note": "[Lithium carbonate, lithium carbonate]", "values": [
      {"measurement": "pIC50", "setting": "GSK-3β [1]", "result": 2.70}
    ]},
    {"smiles": "O=c1cc(-c2ccc(O)c(O)c2)oc2cc(O)c([C@@H]3O[C@H](CO)[C@@H](O)[C@H](O)[C@H]3O)c(O)c12", "note": "[compound 1, isoorientin]", "values": [
      {"measurement": "effective dose protecting SH-SY5Y cells from Aβ42 (morphology)", "setting": "[2]", "result": 200, "unit": "μM"},
      {"measurement": "pEC50", "setting": "[2]; read-out: neuroprotective potency, EC50, parent compound", "result": 4.33}
    ]},
    {"smiles": "O=c1cc(-c2ccc(O)c(O)c2)oc2c([C@@H]3O[C@H](CO)[C@@H](O)[C@H](O)[C@H]3O)c(O)cc(O)c12", "note": "[compound 3, orientin, reference compound]", "values": [
      {"measurement": "pIC50", "setting": "GSK-3β [3]; GSK-3β inhibition, IC50, as stated in text", "result": "< 2.30"}
    ]},
    {"smiles": "COC(=O)[C@H]1O[C@@H](c2c(OC)cc3oc(-c4ccc(OC)c(OC)c4)cc(=O)c3c2OC)[C@H](O)[C@@H](O)[C@@H]1O", "note": "[compound 7, Methyl (2S,3S,4R,5R,6S)-6-(2-(3,4-Dimethoxyphenyl)-5,7-dimethoxy-4-oxo-4H-chromen-6-yl)-3,4,5-trihydroxytetrahydro-2H-pyran-2-carboxylate]", "values": [
      {"measurement": "fold increase of potency against GSK-3β in comparison with 1", "setting": "GSK-3β [3]; ratio of IC50 values relative to isoorientin 1", "result": 1.37, "unit": "fold"}
    ]},
    {"smiles": "COc1ccc(-c2cc(=O)c3c(OC)c([C@@H]4O[C@H](C(=O)NC(C)C)[C@@H](O)[C@H](O)[C@H]4O)c(OC)cc3o2)cc1OC", "note": "[compound 9, (2S,3S,4R,5R,6S)-6-(2-(3,4-Dimethoxyphenyl)-5,7-dimethoxy-4-oxo-4H-chromen-6-yl)-3,4,5-trihydroxy-N-isopropyltetrahydro-2H-pyran-2-carboxamide]", "values": [
      {"measurement": "Ligand-lipophilic efficiency (LiPE)", "setting": "GSK-3β [3]", "result": "≥ 4"},
      {"measurement": "Papp at 5 h, 20 μM", "setting": "[4]", "result": "> 1.5", "unit": "×10⁻⁶ cm/s"},
      {"measurement": "effect on GSK-3β mediated tau hyperphosphorylation (pS396)", "setting": "[5]", "result": "effectively attenuated tau hyperphosphorylation in a dose-dependent manner"}
    ]},
    {"smiles": "COc1ccc(-c2cc(=O)c3c(OC)c([C@@H]4O[C@H](C(=O)NC5CCCCC5)[C@@H](O)[C@H](O)[C@H]4O)c(OC)cc3o2)cc1OC", "note": "[compound 17, (2S,3S,4R,5R,6S)-N-Cyclohexyl-6-(2-(3,4-dimethoxyphenyl)-5,7-dimethoxy-4-oxo-4H-chromen-6-yl)-3,4,5-trihydroxytetrahydro-2H-pyran-2-carboxamide]", "values": [
      {"measurement": "Papp at 5 h, 20 μM", "setting": "[4]", "result": "> 1.5", "unit": "×10⁻⁶ cm/s"},
      {"measurement": "effect on GSK-3β mediated tau hyperphosphorylation (pS396)", "setting": "[5]", "result": "effectively attenuated tau hyperphosphorylation in a dose-dependent manner"}
    ]},
    {"smiles": "COc1ccc(-c2cc(=O)c3c(OC)c([C@@H]4O[C@H](C(=O)NCc5ccccc5)[C@@H](O)[C@H](O)[C@H]4O)c(OC)cc3o2)cc1OC", "note": "[compound 21, (2S,3S,4R,5R,6S)-6-(2-(3,4-Dimethoxyphenyl)-5,7-dimethoxy-4-oxo-4H-chromen-6-yl)-3,4,5-trihydroxy-N-benzyltetrahydro-2H-pyran-2-carboxamide]", "values": [
      {"measurement": "Papp at 5 h, 20 μM", "setting": "[4]", "result": "1 to 1.5", "unit": "×10⁻⁶ cm/s"},
      {"measurement": "effect on GSK-3β mediated tau hyperphosphorylation (pS396)", "setting": "[5]", "result": "effectively attenuated tau hyperphosphorylation in a dose-dependent manner"}
    ]},
    {"smiles": "COc1ccc(-c2cc(=O)c3c(OC)c([C@@H]4O[C@H](C(=O)N[C@@H](C)C(F)(F)F)[C@@H](O)[C@H](O)[C@H]4O)c(OC)cc3o2)cc1OC", "note": "[compound 30, (2S,3S,4R,5R,6S)-6-(2-(3,4-Dimethoxyphenyl)-5,7-dimethoxy-4-oxo-4H-chromen-6-yl)-3,4,5-trihydroxy-N-((S)-1,1,1-trifluoropropan-2-yl)tetrahydro-2H-pyran-2-carboxamide]", "values": [
      {"measurement": "cell viability recovered (from 40% with Aβ42 alone)", "setting": "[6]; pretreatment 1.25 to 20 μM for 1 h, then 10 μM Aβ42 for 72 h, dose-dependent", "result": 100, "unit": "%"},
      {"measurement": "effective dose protecting SH-SY5Y cells from Aβ42 (morphology)", "setting": "[6]; pretreatment, 10 μM Aβ42, 72 h", "result": 10, "unit": "μM"},
      {"measurement": "inhibition of 40 out of 41 kinases in the test panel", "setting": "[7]", "result": "marginal or weak inhibition"},
      {"measurement": "inhibition mode with respect to substrate GS2", "setting": "GSK-3β [8]; ATP 10 μM, GS2 8 to 66 μM", "result": "competed with the substrate GS2"},
      {"measurement": "inhibition mode with respect to ATP", "setting": "GSK-3β [8]; GS2 17 μM, ATP 2 to 50 μM", "result": "no competition between ATP and 30"},
      {"measurement": "selectivity to GSK-3β versus GSK-3α", "setting": "GSK-3β [3]; 5 μM, ratio of % inhibition", "result": 12.3, "unit": "fold"},
      {"measurement": "fold increased potency against GSK-3β compared to 9", "setting": "GSK-3β [3]; 30 compared to 9", "result": "approximately 9 fold"},
      {"measurement": "fold more potent against GSK-3β than epimer 31", "setting": "GSK-3β [3]; 30 compared to 31", "result": "about 4 fold"},
      {"measurement": "dose with no observable cytotoxicity", "setting": "SH-SY5Y cells", "result": "≤ 1000", "unit": "µM"},
      {"measurement": "recovery at 5 h, 20 μM", "setting": "[4]; pH 7.4", "result": 30, "unit": "%"},
      {"measurement": "Papp at 5 h, 20 μM", "setting": "[4]", "result": "> 1.5", "unit": "×10⁻⁶ cm/s"},
      {"measurement": "anti-tau effect relative to TDZD-8", "setting": "[5]; 10 μM, TDZD-8 at the same concentration", "result": "comparable to TDZD-8"},
      {"measurement": "effect on GSK-3β mediated tau hyperphosphorylation (pS396)", "setting": "[5]", "result": "effectively attenuated tau hyperphosphorylation in a dose-dependent manner"}
    ]},
    {"smiles": "COc1ccc(-c2cc(=O)c3c(OC)c([C@@H]4O[C@H](C(=O)N[C@H](C)C(F)(F)F)[C@@H](O)[C@H](O)[C@H]4O)c(OC)cc3o2)cc1OC", "note": "[compound 31, (2S,3S,4R,5R,6S)-6-(2-(3,4-Dimethoxyphenyl)-5,7-dimethoxy-4-oxo-4H-chromen-6-yl)-3,4,5-trihydroxy-N-((R)-1,1,1-trifluoropropan-2-yl)tetrahydro-2H-pyran-2-carboxamide]", "values": [
      {"measurement": "Ligand-lipophilic efficiency (LiPE)", "setting": "GSK-3β [3]", "result": "≥ 4"}
    ]}
  ]
}
